Source: ChEMBL document CHEMBL3885861, “Open TG-GATES”

Organism: Rattus norvegicus
Test: Open TG-GATES - Regimen: Single
Format: toxicity, organism-based, Sprague-Dawley
Design: regimen Single, gender Male, age 6 weeks
Conditions: in vivo, po, 30 mg/kg, route gavage, dose level Middle; for Bas / Eos / Hb / Ht / Lym / MCH / MCHC / MCV / Mono / Neu / Plat / RBC / Ret / WBC: tissue Blood; for KIDNEY_L / KIDNEY_R / KIDNEY_TOTAL: tissue Kidney; for LIVER: tissue Liver; for A/G / ALP / ALT / AST / BUN / CRE / Ca / Cl / DBIL / GLC / IP / K / LDH / Na / PL / RALB / TBIL / TC / TG / TP / gamma-GTP: tissue Plasma

Cc1ccc2cc3c(ccc4ccccc43)c3c2c1CC3 [3-METHYLCHOLANTHRENE]
TERMINAL_BW (3 h): 211.6 g | Bas (3 h): 0% | Eos (3 h): 0.8% | Hb (3 h): 12.5 g/dL | Ht (3 h): 38.3% | Lym (3 h): 73.4% | MCH (3 h): 20.6 pg | MCHC (3 h): 32.6% | MCV (3 h): 63.1 fL | Mono (3 h): 3.6% | Neu (3 h): 21.4% | Plat (3 h): 120.7 x10_4/uL | RBC (3 h): 607.4 x10_4/ul | Ret (3 h): 10.1% | WBC (3 h): 93.9 x10_2/uL | KIDNEY_L (3 h): 0.9 g | KIDNEY_R (3 h): 0.9 g | KIDNEY_TOTAL (3 h): 1.8 g | LIVER (3 h): 9.5 g | A/G (3 h): 1 | ALP (3 h): 1634.6 IU/L | ALT (3 h): 41.6 IU/L | AST (3 h): 76 IU/L | BUN (3 h): 12.6 mg/dL | CRE (3 h): 0.1 mg/dL | Ca (3 h): 10.9 mg/dL | Cl (3 h): 103.3 meq/L | DBIL (3 h): 0 mg/dL | GLC (3 h): 177.4 mg/dL | IP (3 h): 8.2 mg/dL | K (3 h): 4.2 meq/L | LDH (3 h): 224.4 IU/L | Na (3 h): 139.9 meq/L | PL (3 h): 185.8 mg/dL | RALB (3 h): 2.9 g/dL | TBIL (3 h): 0.008 mg/dL | TC (3 h): 87.2 mg/dL | TG (3 h): 201.5 mg/dL | TP (3 h): 5.7 g/dL | gamma-GTP (3 h): 0.6 IU/L | TERMINAL_BW (6 h): 206.2 g | Bas (6 h): 0% | Eos (6 h): 0% | Hb (6 h): 12.9 g/dL | Ht (6 h): 39.5% | Lym (6 h): 77.6% | MCH (6 h): 20.7 pg | MCHC (6 h): 32.7% | MCV (6 h): 63.5 fL | Mono (6 h): 3.6% | Neu (6 h): 17.2% | Plat (6 h): 124.3 x10_4/uL | RBC (6 h): 622.8 x10_4/ul | Ret (6 h): 9% | WBC (6 h): 124.3 x10_2/uL | KIDNEY_L (6 h): 0.9 g | KIDNEY_R (6 h): 0.9 g | KIDNEY_TOTAL (6 h): 1.8 g | LIVER (6 h): 9 g | A/G (6 h): 1 | ALP (6 h): 1407.6 IU/L | ALT (6 h): 35 IU/L | AST (6 h): 66 IU/L | BUN (6 h): 9 mg/dL | CRE (6 h): 0.1 mg/dL | Ca (6 h): 10.7 mg/dL | Cl (6 h): 104.4 meq/L | DBIL (6 h): 0 mg/dL | GLC (6 h): 169 mg/dL | IP (6 h): 8.9 mg/dL | K (6 h): 4.3 meq/L | LDH (6 h): 174.6 IU/L | Na (6 h): 140.3 meq/L | PL (6 h): 158.2 mg/dL | RALB (6 h): 2.9 g/dL | TBIL (6 h): 0.008 mg/dL | TC (6 h): 80.8 mg/dL | TG (6 h): 101.9 mg/dL | TP (6 h): 5.7 g/dL | gamma-GTP (6 h): 0.7 IU/L | TERMINAL_BW (9 h): 206.5 g | Bas (9 h): 0% | Eos (9 h): 0.6% | Hb (9 h): 12.7 g/dL | Ht (9 h): 39.4% | Lym (9 h): 73.2% | MCH (9 h): 20.7 pg | MCHC (9 h): 32.2% | MCV (9 h): 64.3 fL | Mono (9 h): 3.6% | Neu (9 h): 21.6% | Plat (9 h): 127.5 x10_4/uL | RBC (9 h): 612.8 x10_4/ul | Ret (9 h): 9.1% | WBC (9 h): 119.4 x10_2/uL | KIDNEY_L (9 h): 0.9 g | KIDNEY_R (9 h): 0.9 g | KIDNEY_TOTAL (9 h): 1.8 g | LIVER (9 h): 8.6 g | A/G (9 h): 1 | ALP (9 h): 1625.8 IU/L | ALT (9 h): 34.6 IU/L | AST (9 h): 64.2 IU/L | BUN (9 h): 10.4 mg/dL | CRE (9 h): 0.1 mg/dL | Ca (9 h): 10.5 mg/dL | Cl (9 h): 103.9 meq/L | DBIL (9 h): 0.002 mg/dL | GLC (9 h): 178.4 mg/dL | IP (9 h): 10.2 mg/dL | K (9 h): 4.5 meq/L | LDH (9 h): 153.6 IU/L | Na (9 h): 141.7 meq/L | PL (9 h): 160 mg/dL | RALB (9 h): 2.8 g/dL | TBIL (9 h): 0.004 mg/dL | TC (9 h): 84 mg/dL | TG (9 h): 109.2 mg/dL | TP (9 h): 5.6 g/dL | gamma-GTP (9 h): 0.8 IU/L | TERMINAL_BW (24 h): 216.2 g | Bas (24 h): 0% | Eos (24 h): 0.2% | Hb (24 h): 12.6 g/dL | Ht (24 h): 38.1% | Lym (24 h): 80.6% | MCH (24 h): 20.6 pg | MCHC (24 h): 32.9% | MCV (24 h): 62.6 fL | Mono (24 h): 3.8% | Neu (24 h): 14.2% | Plat (24 h): 127.8 x10_4/uL | RBC (24 h): 608 x10_4/ul | Ret (24 h): 8% | WBC (24 h): 107.4 x10_2/uL | KIDNEY_L (24 h): 0.9 g | KIDNEY_R (24 h): 0.9 g | KIDNEY_TOTAL (24 h): 1.9 g | LIVER (24 h): 11 g | A/G (24 h): 1 | ALP (24 h): 2072.4 IU/L | ALT (24 h): 41.2 IU/L | AST (24 h): 77.2 IU/L | BUN (24 h): 13.7 mg/dL | CRE (24 h): 0.1 mg/dL | Ca (24 h): 10.9 mg/dL | Cl (24 h): 103.4 meq/L | DBIL (24 h): 0 mg/dL | GLC (24 h): 173.8 mg/dL | IP (24 h): 7.1 mg/dL | K (24 h): 4.7 meq/L | LDH (24 h): 281.4 IU/L | Na (24 h): 141.5 meq/L | PL (24 h): 165.2 mg/dL | RALB (24 h): 2.8 g/dL | TBIL (24 h): 0.004 mg/dL | TC (24 h): 82.6 mg/dL | TG (24 h): 152.7 mg/dL | TP (24 h): 5.5 g/dL | gamma-GTP (24 h): 0.9 IU/L
